In patent publication US20170275287A1, “NOVEL N2, N4, N7, 6-TETRASUBSTITUTED PTERIDINE-2,4,7-TRIAMINE AND 2, 4, 6, 7-TETRASUBSTITUTED PTERIDINE COMPOUNDS AND METHODS OF SYNTHESIS AND USE THEREOF” (Janus Biotherapeutics, Inc., priority 2014, published 2017):
Read-outs that look alike come from different tables or passages of the source.

Key:
TLR9 = target: T1, TLR9 (Rattus norvegicus, UniProt Q6Y1S0); experiment: PK/PD study: serum cytokines after ODN CpG 1668 challenge; assay type: in vivo, Sprague-Dawley rats
T1 construct: endogenous in cells; host or cells: live Sprague-Dawley rats
T1 sequence (Q6Y1S0 24-1032): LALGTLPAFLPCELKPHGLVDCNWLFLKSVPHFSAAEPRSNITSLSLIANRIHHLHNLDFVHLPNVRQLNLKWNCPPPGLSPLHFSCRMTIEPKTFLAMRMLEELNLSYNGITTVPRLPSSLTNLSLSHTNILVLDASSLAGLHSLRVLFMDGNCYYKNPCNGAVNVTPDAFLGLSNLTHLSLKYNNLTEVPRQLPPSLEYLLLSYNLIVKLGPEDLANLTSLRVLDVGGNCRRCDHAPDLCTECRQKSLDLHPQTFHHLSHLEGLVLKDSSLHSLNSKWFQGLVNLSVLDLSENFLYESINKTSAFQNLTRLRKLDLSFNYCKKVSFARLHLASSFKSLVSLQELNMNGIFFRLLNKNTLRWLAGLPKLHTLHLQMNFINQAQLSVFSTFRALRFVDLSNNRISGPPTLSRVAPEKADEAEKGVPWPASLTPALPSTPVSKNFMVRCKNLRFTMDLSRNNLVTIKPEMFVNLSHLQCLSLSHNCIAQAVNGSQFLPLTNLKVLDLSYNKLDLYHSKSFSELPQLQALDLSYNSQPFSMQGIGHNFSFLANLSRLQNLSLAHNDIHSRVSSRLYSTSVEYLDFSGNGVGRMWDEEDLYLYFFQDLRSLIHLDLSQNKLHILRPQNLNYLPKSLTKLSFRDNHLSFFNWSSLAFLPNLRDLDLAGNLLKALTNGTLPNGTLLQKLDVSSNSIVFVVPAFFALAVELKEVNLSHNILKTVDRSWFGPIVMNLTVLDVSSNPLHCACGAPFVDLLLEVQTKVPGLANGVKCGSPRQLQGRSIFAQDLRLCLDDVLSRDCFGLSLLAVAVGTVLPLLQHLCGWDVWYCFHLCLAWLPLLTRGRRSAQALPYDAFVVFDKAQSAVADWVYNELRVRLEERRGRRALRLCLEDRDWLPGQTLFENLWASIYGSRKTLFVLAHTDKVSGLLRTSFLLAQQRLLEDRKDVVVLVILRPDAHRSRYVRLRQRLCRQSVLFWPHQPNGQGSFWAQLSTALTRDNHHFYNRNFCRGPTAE
Method: The objective of this study was to collect serum following ODN CpG 1668 administration and to determine the pharmacokinetics of JB6121 following oral administration to Sprague-Dawley rats for 7 days. There was a pre-test to establish the appropriate agonist dose for a TLR9 ligand, CpG DNA ODN 1668, in rats using serum IL-12 as the monitored cytokine, groups 1-3, see table 6. Whole blood samples for serum were collected terminally from each animal 3 hours following dosing with ODN CpG 1668. Serum IL-12 was determined by ELISA, data not shown. An agonist dose of lmg/kg was selected for the next phase of the study. For groups administered JB6121 (Groups 4-7), formulations were corrected for base/salt components and not corrected for purity. On the initial day of dose administration, JB6121 formulations were prepared using sterile PBS to the adjusted target dosing concentrations using a factor of 0.8265 to correct for salt content. Dosing was performed as outlined in the following Table 9.
Animals were assigned to four groups (groups 4-7) and administered JB6121 at 0.39, 1.56, 6.25, or 25 mg/kg in a volume of […] once per day by oral gavage for 7 days. On Day 7, two hours following the JB6121 dose (approximate Cmax), ODN CpG 1668 was administered as a single IP dose at 1 mg/kg in a volume of 1 mL/kg. Whole blood samples for bioanalysis and serum samples for serum cytokine analysis were collected by tail vein bleeding or terminally by cardiac puncture at t=2, 3, 4 and 5 h.
Serum IL-12 was monitored at three hours post agonist challenge as a measure of pharmacodynamic JB6121 activity, see FIG. 4. The apparent ID50 post 7-day exposure is approximately 11 ng*h/ml AUC or roughly 0.5 mg/kg dose. […] This would lead to a fourfold greater, 0.5 mg/kg versus 2.4 mg/kg, expected activity in the 7-day rat versus the 1-day mouse. […] We also used multiplex analysis to measure additional cytokines and chemokines in the serum samples. The measurements delivered results for MIP-1a, MIP-2, MCP-1 and IP-10.

five bacterial strains = experiment: Non-GLP AMES test (BioRelience); conditions: five bacterial strains plus or minus S9 fraction to 5000 μg
Method: A non-GLP AMES test study was performed by BioRelience Inc, MD according to Maron, D. M. and Ames, B. N., 1983, Mutation Res., 113:173-215. The test was performed in five bacterial strains plus or minus S9 fraction to 5000 μg.

[1] = 7-day non-GLP tox study, once daily oral gavage; assay type: in vivo, rats; conditions: for no-observed-effect level (NOEL): rats, 7 days oral
Method: A 7-day non-GLP tox study was performed in rats. Dosing was once daily by oral gavage. There were four dose groups; 0, 10, 30 and 100 mg/kg. The following parameters and end points were evaluated in this study: clinical signs, body weights, body weight changes, food consumption, clinical pathology parameters (hematology, coagulation, clinical chemistry, and urinalysis), toxicokinetic parameters, gross necropsy findings, organ weights, and histopathologic examinations.

CN1CCN(c2nc(NCCN3CCOCC3)c3nc(Cl)c(NCCN4CCOCC4)nc3n2)CC1 [JB6121, 6-chloro-2-(4-methylpiperazin-1-yl)-N^4,N^7-bis(2-morpholinoethyl)pteridine-4,7-diamine]
ED50 (TLR9; rat, po, serum IL-12, 3 h post agonist challenge, read-out: apparent ID50 post 7-day exposure, as dose): ~0.5 mg/kg
inhibition at 1.56 mg/kg (TLR9; rat, 1.56 mg/kg dose, PO daily x7 days): > 80%
ED50 (TLR9; rat, serum IP-10, read-out: ID50, IP-10 (multiplex analysis)): ~2.8 mg/kg
apparent ID50 post 7-day exposure, as AUC (TLR9; serum IL-12, 3 h post agonist challenge): approximately 11 ng*h/ml
AMES test (five bacterial strains): no toxicity
NOAEL at 7 days ([1]; both sexes, rat, in vivo, po): 100 mg/kg/day
hematopoiesis (spleen) ([1]; rat, in vivo, 30 mg/kg/day): increased incidence of hematopoiesis
increase of mean spleen weights ([1]; rat, in vivo, 30 mg/kg/day): at least 10%
hematopoiesis in the liver ([1]; rat, in vivo, 100 mg/kg/day): slight increase in hematopoiesis
no-observed-effect level (NOEL) ([1]; females): 100 mg/kg/day
no-observed-effect level (NOEL) ([1]; males): 10 mg/kg/day
